The source of these data is PubChem BioAssay (NCI).

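48-hour exposure; five concentrations; linearly interpolated endpoints. Abbreviation: GI50, concentration required for 50% inhibition of growth. At the TGI there is no net growth.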

Some test systems named below: CAKI-1 renal; HCT-116 colon; HCT-15 colon; KM12 colon; LOX IMVI melanoma; OVCAR-8 ovarian; RXF 393 renal; SK-MEL-2 melanoma; HL-60(TB) leukemia; CCRF-CEM leukemia.
Experiment in all cases: NCI anticancer screen, dose series, 48 h

For `CCCCn1cnc2c(SC)ncnc21`, the TGI in the test with CAKI-1 renal, in the test on HCT-116 colon, in the test with HCT-15 colon, with KM12 colon, in the test with LOX IMVI melanoma and in the test on OVCAR-8 ovarian was greater than 100 µM each time. Also, the TGI with RXF 393 renal and in the test on SK-MEL-2 melanoma was greater than 100 µM in each case.

With `CN(CCOc1ccc(C#N)cc1)CCOc1ccc(C#N)cc1`, the GI50 is 74.6 µM in the test with CAKI-1 renal; 60.5 µM with HCT-116 colon; 25.4 µM with HCT-15 colon; 20.7 µM in the test on HL-60(TB) leukemia; 16.6 µM with KM12 colon; greater than 100 µM in the test on LOX IMVI melanoma. Also, the figures for the GI50 with OVCAR-8 ovarian and in the test with RXF 393 renal were 29 µM and 46.8 µM, respectively. The TGI is greater than 100 µM in the test on CAKI-1 renal; greater than 100 µM in the test with HCT-116 colon; greater than 100 µM with HCT-15 colon; greater than 100 µM in the test on HL-60(TB) leukemia; 66.2 µM in the test with KM12 colon; greater than 100 µM in the test on LOX IMVI melanoma. In addition, the TGI in the test with OVCAR-8 ovarian and with RXF 393 renal was greater than 100 µM each time.

Turning to `CCC12CCCC(=O)N1C(CO)C(c1ccccc1)O2` (centres undefined), the TGI in the test with CAKI-1 renal, in the test on CCRF-CEM leukemia, in the test on HCT-116 colon, in the test with HCT-15 colon, in the test with KM12 colon and with LOX IMVI melanoma was greater than 100 µM in each case. For the same molecule, the TGI with OVCAR-8 ovarian, in the test with RXF 393 renal and in the test with SK-MEL-2 melanoma was greater than 100 µM in each case.

Take `CC(=O)n1c2ccccc2c2nc3nc(Oc4ccc(C)cc4)c4ccccc4c3cc21`: the TGI with CAKI-1 renal, in the test on CCRF-CEM leukemia, in the test on HCT-116 colon, in the test with HCT-15 colon, in the test on KM12 colon and in the test with LOX IMVI melanoma was greater than 100 µM throughout. Further, the TGI in the test on OVCAR-8 ovarian and with SK-MEL-2 melanoma was greater than 100 µM in each case.

Regarding `Fc1ccc2[nH]c3c(NCCCN4CCOCC4)ncnc3c2c1`, the GI50 with CAKI-1 renal is 34.2 µM; in the test with HCT-116 colon, 33.7 µM; in the test with HCT-15 colon, 32.1 µM; with HL-60(TB) leukemia it was 51.9 µM; in the test on KM12 colon, 48.8 µM; in the test with LOX IMVI melanoma, 30.7 µM. The GI50 in the test with OVCAR-8 ovarian is 66.8 µM; in the test with RXF 393 renal, 34.5 µM; with SK-MEL-2 melanoma, 52 µM. Besides, the TGI in the test on CAKI-1 renal, in the test on HCT-116 colon, in the test on HCT-15 colon, with HL-60(TB) leukemia, with KM12 colon and with LOX IMVI melanoma was greater than 100 µM throughout. Further, the TGI in the test with OVCAR-8 ovarian, with RXF 393 renal and with SK-MEL-2 melanoma was greater than 100 µM in each case.

Regarding `CCOC(=O)C(=O)Nc1c(C)cccc1C`, the TGI in the test with CAKI-1 renal, with HCT-116 colon, in the test with HCT-15 colon, in the test with KM12 colon, in the test on LOX IMVI melanoma and with OVCAR-8 ovarian was greater than 100 µM in each case. The TGI in the test on RXF 393 renal and with SK-MEL-2 melanoma was greater than 100 µM each time.

Regarding `CC/C=C\C/C=C\C/C=C\CCCCCCCC(=O)OCC`, the TGI with CAKI-1 renal, in the test on CCRF-CEM leukemia, in the test with HCT-116 colon, in the test on HL-60(TB) leukemia, with KM12 colon and in the test on LOX IMVI melanoma was greater than 100 µM throughout. Besides, the TGI with OVCAR-8 ovarian and in the test on SK-MEL-2 melanoma was greater than 100 µM in each case.

Turning to `CSc1nc2c(nc(N)n2C2OCC(O)C(O)C2O)c(=O)n1C` (centres undefined), the TGI with CAKI-1 renal, with CCRF-CEM leukemia, with HCT-116 colon, with HL-60(TB) leukemia, with KM12 colon and in the test with LOX IMVI melanoma was greater than 100 µM in each case. Besides, the TGI with OVCAR-8 ovarian and in the test on RXF 393 renal was greater than 100 µM each time.

With `O=C1C2=C(c3ccccc31)C(c1ccccc1)NC(=S)N2` (centres undefined), the TGI with CAKI-1 renal was greater than 100 µM; with CCRF-CEM leukemia it was greater than 100 µM; with HCT-116 colon, greater than 100 µM; in the test on HCT-15 colon, greater than 100 µM; with HL-60(TB) leukemia it was 39.6 µM; in the test with KM12 colon it was greater than 100 µM. For the same molecule, the TGI with OVCAR-8 ovarian and in the test with SK-MEL-2 melanoma was greater than 100 µM each time.

Regarding `S=c1[nH]c2ccc(Br)cc2c(=S)n1-c1ccccc1`, the TGI in the test on CAKI-1 renal is greater than 100 µM; in the test with CCRF-CEM leukemia it was greater than 100 µM; in the test with HCT-116 colon, 43.9 µM; in the test with HCT-15 colon, 63.2 µM; in the test with KM12 colon, 72.5 µM; in the test with LOX IMVI melanoma, 85.1 µM. The results for the TGI in the test on OVCAR-8 ovarian and in the test on SK-MEL-2 melanoma were greater than 100 µM and 43.7 µM, respectively.

Turning to `CC(C)NC(=O)OCCS(=O)c1c(Cl)c(Cl)nn1C` (centres undefined), the TGI in the test on CAKI-1 renal was greater than 100 µM; in the test on CCRF-CEM leukemia, greater than 100 µM; with HCT-116 colon it was greater than 100 µM; with HCT-15 colon, 43.8 µM; in the test on HL-60(TB) leukemia, greater than 100 µM; in the test on KM12 colon, greater than 100 µM. For the same molecule, the TGI with LOX IMVI melanoma and in the test on SK-MEL-2 melanoma was greater than 100 µM throughout.

As for `CC(C)(C)c1ccc(S(=O)(=O)N[C@H]2CC[C@H]3[C@@H]4CCc5cc(OS(=O)(=O)O)ccc5[C@H]4CC[C@]23C)cc1`, the GI50 with CAKI-1 renal is 2.77 µM; in the test with CCRF-CEM leukemia, 2.88 µM; in the test on HCT-116 colon it was 1.79 µM; in the test on HCT-15 colon it was 1.79 µM; in the test on KM12 colon, 2.08 µM; in the test on LOX IMVI melanoma it was 1.7 µM. Moreover, the GI50 was 2.79 µM in the test with OVCAR-8 ovarian, 1.6 µM with RXF 393 renal and 2.46 µM with SK-MEL-2 melanoma. The TGI with CAKI-1 renal came to 8.89 µM; with CCRF-CEM leukemia, 9.25 µM; in the test on HCT-116 colon it was 3.35 µM; with HCT-15 colon, 3.59 µM; with KM12 colon it was 4.01 µM; in the test on LOX IMVI melanoma, 3.11 µM. The figures for the TGI with OVCAR-8 ovarian, with RXF 393 renal and with SK-MEL-2 melanoma were 8.46 µM, 3.49 µM and 5.86 µM, respectively.

With `CC(=O)Oc1ccc(O)c(O)c1C/C=C(\C)CC/C=C(\C)CC/C=C(\C)CCC=C(C)C`, the TGI was 8.03 µM in the test with CAKI-1 renal; 4.11 µM with HL-60(TB) leukemia; 11.5 µM in the test with KM12 colon; 0.694 µM in the test on LOX IMVI melanoma; 1.79 µM in the test with OVCAR-8 ovarian; 2.47 µM in the test with RXF 393 renal. The TGI with SK-MEL-2 melanoma was determined as 2.9 µM.

`Cn1nc(-c2ccccc2)c(C(=O)/C=C/c2ccccc2)c(N2CCOCC2)c1=O`: the TGI is 57.2 µM in the test on CCRF-CEM leukemia; 32.8 µM in the test on HCT-116 colon; 57 µM with HCT-15 colon; 32.3 µM with HL-60(TB) leukemia; 60.5 µM in the test with LOX IMVI melanoma; greater than 100 µM in the test with OVCAR-8 ovarian. The molecule also registered a TGI in the test on RXF 393 renal of 25.9 µM.
